Assay results from US11020378B2, “Compounds, compositions and methods for treating insulin resistance” (UNIVERSITE PARIS DESCARTES, priority 2017, dated 2021).

Key:
PI3K/Akt pathway = experiment: Luc-Akt-PH/YFP-membrane BRET in MCF7 line; format: cell-based; details: 50 μM, MCF7 cells
Protocol: FIG. 5A and FIG. 5B, the effect of the compound of Formula (Ia) according to the invention (black bars) on the activation of the PI3K/Akt pathway measured by the Luc-Akt-PH/YFP-membrane BRET technique compared to the DMSO (Dimethylsulfoxide) control (white bars) as measured on (FIG. 5A) HEK293T cells pre-incubated or not for 1 h with tyrosine kinase inhibitor AG1024 at a concentration of 25 μM final or on (FIG. 5B) an MCF7 line doubly and stably transfected with the vectors encoding Luc-Akt-PH and YFP-membrane. The results, expressed as BRET delta, are the average of 3 to 8 independent experiments (**p<0.01, ***p<0.001, by Newman-Keuls multiple comparison test).
To measure the activity of the PI3-kinase pathway by the BRET technique, HEK293T cells are transfected with plasmids allowing, on the one hand, the expression of the PH (Pleckstrin Homology) domain of the Akt protein which has been fused to the luciferase and, on the other hand, a membrane-addressing sequence which has been fused to the YFP protein. When the PH domain of Akt is recruited to the membrane by the PIP3s, an energy transfer between the luciferase that is coupled to the PH domain of Akt and the membrane YFP protein takes place. The measured BRET signal is a control of the production of PIP3s at the membrane and is a reflection of the activation of the PI-3-kinase/Akt pathway in real time on cells. […]

[1] = test system: PEPCK and G6Pase expression; experiment: Expression of neoglucogenesis genes in hepatocytes in primary culture (RT-qPCR); format: cell-based, mice; details: 50 μM; glucagon 10 nM; absence of insulin; 8 h
Protocol: FIG. 6, the effect of the compound of Formula (Ia) according to the invention (black bars) on the expression of insulin target genes, PEPCK (FIG. 6A) and G6Pase (FIG. 6B), involved in the neoglucogenesis pathway. Hepatocytes in primary culture are cultured for 8 h in the presence of compounds of Formula (Ia) (50 μM), insulin (1 nM) and glucagon (pre-incubation 1 h at 10 nM). The relative quantification of mRNAs is performed by RT-qPCR. The values are related to the quantification of the 18S gene in the same sample in order to normalize the results. The results are the average of 3 to 5 independent experiments (*p<0.05, **p<0.01, by Anova followed by a Newman-Keuls test).
To study the inhibitory effect of insulin on neoglucogenesis gene expression, hepatocytes from mice in primary culture were pre-incubated with 10 nM glucagon.

IR-Grb14 interaction [2] = target: T1, IR-Grb14 interaction (Homo sapiens, UniProt P06213); experiment: IR-Luc/Grb14-YFP BRET technique in a cell-free system; format: binding
T1 construct: a vector encoding the insulin receptor fused to the luciferase (IR-Luc); made in house; host or cells: HEK293T (transfected); IR-Luc was partially purified on wheat germ lectin sepharose; Grb14-YFP was used as crude lysate
Protocol: Compounds according to the invention were experimentally assessed for their inhibitory effect on the IR-Grb14 interaction by a BRET technique in a cell-free system described briefly below.
On the one hand, HEK293T cells were transfected with a vector encoding the insulin receptor fused to the luciferase (IR-Luc). Before lysis, the cells transfected with IR-Luc were stimulated or not with 100 nM insulin for 10 minutes. The IR-Luc lysates were recovered and then purified on sepharose beads coupled with wheat germ lectin (WGL for Wheat Germ Lectin). The IR-Luc receptors were then eluted and then frozen in liquid nitrogen before being stored at −80° C. On the other hand, HEK293T cells were transfected either with a vector encoding the Grb14 protein fused to the YFP (Grb14-YFP), or with the empty plasmid pcDNA3. The cells transfected with Grb14-YFP or with the empty plasmid pcDNA3 were lysed 48 h after transfection. After centrifugation, the lysates are recovered and frozen at −80° C.
The insulin receptors (IR-Luc) partially purified from cells stimulated or not with insulin were incubated for 20 minutes with the inhibitor compounds according to the invention suspended in DMSO. The cellular extracts from cells transfected with Grb14-YFP (or the empty plasmid pcDNA3) were then added and then after 40 minutes of incubation, coelenterazine was added and BRET reading was initiated. The results are expressed as a percentage of the BRET signal obtained in the presence of the molecules tested compared to the BRET signal of the DMSO control.

IRTK-Grb10 interaction = target: T2, IRTK-Grb10 interaction (Homo sapiens, UniProt P06213); experiment: Co-immunoprecipitation of IRTK48-RLuc with Grb10-YFP in co-transfected HEK 293T cells; format: cell-based; details: same experiment as with Grb14
T2 construct: a construct bearing only the tyrosine kinase domain of the luciferase-fused receptor and the Grb10 protein fused to YFP; expressed in transfected cells; host or cells: HEK 293T
Protocol: In order to test the specificity of the compound of Formula (Ia) on this IRTK-Grb14 interaction, the same experiment was conducted with HEK 293T cells co-transfected with a construct bearing only the tyrosine kinase domain of the luciferase-fused receptor and the Grb10 protein fused to YFP. Indeed, the Grb10 protein also binds to the phosphorylated insulin receptor and inhibits its catalytic activity.

IR-Grb14 interaction [3] = target: T1, IR-Grb14 interaction; experiment: Co-immunoprecipitation of IR-Luc with Grb14-YFP in a cell-free system (Western blot); format: binding; details: for reduction of the amount of co-precipitated IR-Luc: dose series, results not shown
Protocol: The inhibitory effect of the compounds according to the invention on the IR-Grb14 interaction has been confirmed in co-immunoprecipitation experiments in a cell-free system. IR-Luc extracts, stimulated or not by insulin, […] before being incubated with the cellular extract containing the fusion protein Grb14-YFP for 40 minutes. Immunoprecipitation against YFP allows to analyze by Western blot the amount of receptor that has remained associated with the Grb14 protein.

T1 sequence (P06213 763-1382 limits assumed): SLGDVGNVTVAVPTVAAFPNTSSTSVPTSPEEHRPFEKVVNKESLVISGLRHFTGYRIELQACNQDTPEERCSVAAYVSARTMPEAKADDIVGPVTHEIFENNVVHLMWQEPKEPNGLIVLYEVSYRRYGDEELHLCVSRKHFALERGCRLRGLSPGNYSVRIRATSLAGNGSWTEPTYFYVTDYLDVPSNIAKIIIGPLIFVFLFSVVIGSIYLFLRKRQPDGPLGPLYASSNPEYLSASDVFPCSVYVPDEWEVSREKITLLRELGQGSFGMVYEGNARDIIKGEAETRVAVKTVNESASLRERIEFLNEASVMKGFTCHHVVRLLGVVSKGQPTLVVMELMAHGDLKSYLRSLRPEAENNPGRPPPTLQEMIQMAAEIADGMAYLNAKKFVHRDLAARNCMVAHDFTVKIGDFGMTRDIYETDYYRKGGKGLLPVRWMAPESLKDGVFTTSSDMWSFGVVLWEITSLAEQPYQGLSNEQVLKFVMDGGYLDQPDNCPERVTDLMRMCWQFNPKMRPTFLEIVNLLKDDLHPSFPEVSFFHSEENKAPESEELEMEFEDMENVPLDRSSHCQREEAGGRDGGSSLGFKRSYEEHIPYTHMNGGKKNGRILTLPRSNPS
T1 sequence (P06213 28-758 partner limits assumed): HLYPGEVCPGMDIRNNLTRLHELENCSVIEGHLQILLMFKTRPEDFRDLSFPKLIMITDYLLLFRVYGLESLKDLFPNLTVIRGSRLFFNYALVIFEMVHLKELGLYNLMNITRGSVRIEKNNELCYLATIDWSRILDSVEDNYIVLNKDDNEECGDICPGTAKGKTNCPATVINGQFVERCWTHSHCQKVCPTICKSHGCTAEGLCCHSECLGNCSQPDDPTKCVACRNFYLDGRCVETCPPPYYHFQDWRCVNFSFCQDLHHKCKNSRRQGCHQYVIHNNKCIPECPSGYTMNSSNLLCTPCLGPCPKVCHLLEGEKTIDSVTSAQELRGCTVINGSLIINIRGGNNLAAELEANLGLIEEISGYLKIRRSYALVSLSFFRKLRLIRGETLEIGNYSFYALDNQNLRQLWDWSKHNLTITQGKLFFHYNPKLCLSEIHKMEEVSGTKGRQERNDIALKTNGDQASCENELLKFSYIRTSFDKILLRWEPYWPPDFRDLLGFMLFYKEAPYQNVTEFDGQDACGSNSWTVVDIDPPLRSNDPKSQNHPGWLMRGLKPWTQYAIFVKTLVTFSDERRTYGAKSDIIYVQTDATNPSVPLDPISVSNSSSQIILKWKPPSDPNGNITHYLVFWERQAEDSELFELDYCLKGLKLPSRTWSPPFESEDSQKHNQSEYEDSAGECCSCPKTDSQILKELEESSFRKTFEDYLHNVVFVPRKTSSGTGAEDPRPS
T2 sequence (P06213 1023-1298 limits assumed): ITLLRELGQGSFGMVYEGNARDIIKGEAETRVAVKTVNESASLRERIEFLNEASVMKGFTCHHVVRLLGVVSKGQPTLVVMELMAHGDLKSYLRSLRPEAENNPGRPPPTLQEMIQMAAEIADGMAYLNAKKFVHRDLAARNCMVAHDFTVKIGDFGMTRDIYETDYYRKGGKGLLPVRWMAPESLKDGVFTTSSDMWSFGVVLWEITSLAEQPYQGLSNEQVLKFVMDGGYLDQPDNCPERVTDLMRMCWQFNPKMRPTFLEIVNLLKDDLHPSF

Cc1ccc(/C=C/C(=O)Nc2ccc(S(=O)(=O)Nc3onc(C)c3C)cc2)o1 [Ia]
effect on the production of PIP3s at the membrane (PI3K/Akt pathway; absence of insulin): no effect | effect on the production of PIP3s at the membrane (PI3K/Akt pathway; presence of 100 nM insulin): no effect | decrease in glucagon-induced G6Pase expression [1]: about 20% | decrease in glucagon-induced PEPCK expression [1]: about 20% | remaining activity at 50 µM (IR-Grb14 interaction [2]; 50 μM, insulin stimulation (100 nM), read-out: % BRET signal/DMSO control): 39% | decrease in the BRET signal between the insulin receptor and the Grb14 protein (IR-Grb14 interaction [2]; 50 μM, with insulin stimulation): 60% | decrease in the BRET signal (IR-Grb14 interaction [2]; in the absence of stimulation with insulin): 50% | amounts of tyrosine kinase domain of the insulin receptor co-immunoprecipitated with the Grb10 protein (IRTK-Grb10 interaction): does not change | reduction of the amount of co-precipitated IR-Luc (IR-Grb14 interaction [3]; 25 μM): 20% | reduction of the amount of co-precipitated IR-Luc (IR-Grb14 interaction [3]; 50 μM): 50% | inhibition at 50 µM (IR-Grb14 interaction [3]; 50 μM, in the presence of insulin, read-out: reduction of the amount of insulin receptors associated with the Grb14 protein): 60%
